Test results as given in patent publication US20220183972A1, “NANOEMULSION HYDROPHOBIC […]” (VERTOSA INC., priority 2018, published 2022).

assay: Emulsion droplet size by DLS, Polyglyceryl-4 main surfactants; format: physicochemical; details: 1 g cannabinoid oil, 0.7 g olive oil, 2.5 g Polyglyceryl-4 surfactant, 1.5 g sunflower lecithin, 40 g water, 80% amplitude

| Molecule | final emulsion droplet average size [nm] |
| --- | --- |
| Polyglyceryl-4 Caprate | 365 |
| Polyglyceryl-4 Oleate | 506 |
| Polyglyceryl-4 Isostearate | 371 |

assay: not given; details: upon eating cannabis; cited from earlier work

| Molecule | THC absorbed |
| --- | --- |
| CCCCCc1cc(O)c2c(c1)OC(C)(C)[C@@H]1CCC(C)=C[C@@H]21 [THC, Tetrahydrocannabinol] | 8-15% |

same assay, conditions: upon smoking cannabis; cited from earlier work

| Molecule | THC absorbed by lung |
| --- | --- |
| CCCCCc1cc(O)c2c(c1)OC(C)(C)[C@@H]1CCC(C)=C[C@@H]21 [THC, Tetrahydrocannabinol] | 2-45% |

assay: not given; details: Span surfactants, Example 10; cited from earlier work

| Molecule | HLB |
| --- | --- |
| Span 60 | 4.7 |
| Span 120 | 4.7 |
| Span 80 | 4.3 |
| Span 40 | 6.7 |

same assay, conditions: Table 1; cited from earlier work

| Molecule | HLB |
| --- | --- |
| Vitamin E TPGS 300 | 8.2 |
| Tween 81 | 10 |
| Polyglyceryl-6 Stearate | 9 |
| Polyglyceryl-6 oleate | 9 |
| Vitamin E TPGS 200 | 6.3 |
| Vitamin E TPGS 4000 | 18.1 |
| Vitamin E TPGS 2000 | 16.5 |
